According to patent US6809065B2, “Herbicide containing substituted pyrazole derivative as active ingredient” (SDS Biotech K.K., priority 2001, dated 2004):

What was measured:
Chenopodium album [1] = experiment: Upland soil treatment (Test Example 2); format: in vivo; settings: soil surface treatment next day after sowing, wettable powder, 1 kg active ingredient per hectare, evaluated 21st day after application
Method in brief: (§1)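 Scored 21 days post-application on an index scale where higher values mean greater herbicidal effect on weeds and lower values mean greater crop safety. Treatment was a water-diluted wettable powder sprayed evenly onto the soil surface at 1 kg active ingredient per hectare, one day after seeding.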

Digitaria adscendens [2] = experiment: Upland soil treatment (Test Example 2); format: in vivo; settings: soil surface treatment next day after sowing, wettable powder, 1 kg active ingredient per hectare, evaluated 21st day after application
Method in brief: as §1

Setaria viridis [3] = experiment: Upland soil treatment (Test Example 2); format: in vivo; settings: soil surface treatment next day after sowing, wettable powder, 1 kg active ingredient per hectare, evaluated 21st day after application
Method in brief: as §1

Stellaria media [4] = experiment: Upland soil treatment (Test Example 2); format: in vivo; settings: soil surface treatment next day after sowing, wettable powder, 1 kg active ingredient per hectare, evaluated 21st day after application
Method in brief: as §1

[5] = test system: rice (Oryza sative, variety: Koshihikari); experiment: Paddy field treatment (Test Example 3), crop; format: in vivo, Oryza sativa; settings: transplanted rice two-leaf period, water surface treatment 10th day after transplantation, 1 kg active ingredient per hectare, evaluated 21st day, lower index = higher safety
Method in brief: (§2)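 Paddy soil in pots was puddled and flooded to 4 cm, weeds were sown, and two-leaf Koshihikari rice was transplanted at 3 cm depth. Ten days after transplanting, wettable powder was applied onto the water surface at 1 kg active ingredient per hectare. Herbicidal effect was index-scored 21 days later.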

Echinochloa spp. = experiment: Paddy field treatment (Test Example 3); format: in vivo, Echinochloa crusgalli; settings: paddy pot, submerged 4 cm, dropped on water surface 10th day after transplantation, 1 kg active ingredient per hectare, evaluated 21st day
Method in brief: as §2

[6] = test system: wheat (Triticum aestivum); experiment: Upland soil treatment (Test Example 2), crop; format: in vivo; settings: soil surface treatment next day after sowing, 1 kg active ingredient per hectare, evaluated 21st day, lower index = higher safety
Method in brief: as §1

soybean (Glycine max) [7] = experiment: Upland soil treatment (Test Example 2), crop; format: in vivo; settings: soil surface treatment next day after sowing, 1 kg active ingredient per hectare, evaluated 21st day, lower index = higher safety
Method in brief: as §1

[8] = test system: wheat (Triticum aestivum); experiment: Upland field foliage treatment (Test Example 1), crop; format: in vivo; settings: foliage treatment 14th day after sowing, 1 kg active ingredient per hectare, evaluated 21st day, lower index = higher safety
Method in brief: (§3)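 Foliar spray, 1 kg a.i./ha, wettable powder in water, applied 14 d post-sowing; seeds covered by ~1 cm upland soil. Index scoring at 21 d. Higher index = stronger weed control; for crops, lower index = greater safety.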

soybean (Glycine max) [9] = experiment: as above; format: in vivo; settings: foliage treatment 14th day after sowing, 1 kg active ingredient per hectare, evaluated 21st day, lower index = higher safety
Method in brief: as §3

Chenopodium album [10] = experiment: Upland field foliage treatment (Test Example 1); format: in vivo; settings: foliage treatment 14th day after sowing, wettable powder, 1 kg active ingredient per hectare, evaluated 21st day after application
Method in brief: as §3

Digitaria adscendens [11] = experiment: Upland field foliage treatment (Test Example 1); format: in vivo; settings: foliage treatment 14th day after sowing, wettable powder, 1 kg active ingredient per hectare, evaluated 21st day after application
Method in brief: as §3

Setaria viridis [12] = experiment: Upland field foliage treatment (Test Example 1); format: in vivo; settings: foliage treatment 14th day after sowing, wettable powder, 1 kg active ingredient per hectare, evaluated 21st day after application
Method in brief: as §3

Stellaria media [13] = experiment: Upland field foliage treatment (Test Example 1); format: in vivo; settings: foliage treatment 14th day after sowing, wettable powder, 1 kg active ingredient per hectare, evaluated 21st day after application
Method in brief: as §3

Scirpus juncoides = experiment: Paddy field treatment (Test Example 3); format: in vivo; settings: paddy pot, submerged 4 cm, dropped on water surface 10th day after transplantation, 1 kg active ingredient per hectare, evaluated 21st day
Method in brief: as §2

Monochoria vaginalis = experiment: Paddy field treatment (Test Example 3); format: in vivo; settings: paddy pot, submerged 4 cm, dropped on water surface 10th day after transplantation, 1 kg active ingredient per hectare, evaluated 21st day
Method in brief: as §2

Ammannia multiflora = experiment: Paddy field treatment (Test Example 3); format: in vivo; settings: paddy pot, submerged 4 cm, dropped on water surface 10th day after transplantation, 1 kg active ingredient per hectare, evaluated 21st day
Method in brief: as §2

| SMILES | Herbicidal activity Chenopodium album (Chenopodium album [1]) | Herbicidal activity Digitaria adscendens (Digitaria adscendens [2]) | Herbicidal activity Setaria viridis (Setaria viridis [3]) | Herbicidal activity Stellaria media (Stellaria media [4]) | Herbicidal activity Oryza sativa [5] | Herbicidal activity Echinochloa spp. (Echinochloa spp.) | Herbicidal activity Triticum aestivum [6] | Herbicidal activity Glycine max (soybean (Glycine max) [7]) | Herbicidal activity Triticum aestivum [8] | Herbicidal activity Glycine max (soybean (Glycine max) [9]) | Herbicidal activity Chenopodium album (Chenopodium album [10]) | Herbicidal activity Digitaria adscendens (Digitaria adscendens [11]) | Herbicidal activity Setaria viridis (Setaria viridis [12]) | Herbicidal activity Stellaria media (Stellaria media [13]) | Herbicidal activity Scirpus juncoides (Scirpus juncoides) | Herbicidal activity Monochoria vaginalis (Monochoria vaginalis) | Herbicidal activity Ammannia multiflora (Ammannia multiflora) |
| --- | --- | --- | --- | --- | --- | --- | --- | --- | --- | --- | --- | --- | --- | --- | --- | --- | --- |
| COC=C(Cn1nc(-c2ccccc2)c(C)c1Cl)C(=O)OC [Compound 45] | 4 (herbicidal effect of not less than 70% by weight and less than 90% by weight) | 4 (herbicidal effect of not less than 70% by weight and less than 90% by weight) | 4 (herbicidal effect of not less than 70% by weight and less than 90% by weight) | 4 (herbicidal effect of not less than 70% by weight and less than 90% by weight) | 0 (herbicidal effect of not less than 0% by weight and less than 10% by weight) | 4 (herbicidal effect of not less than 70% by weight and less than 90% by weight) | 0 (herbicidal effect of not less than 0% by weight and less than 10% by weight) | 0 (herbicidal effect of not less than 0% by weight and less than 10% by weight) | 0 (herbicidal effect of not less than 0% by weight and less than 10% by weight) | 1 (herbicidal effect of not less than 10% by weight and less than 30% by weight) | 5 (herbicidal effect of not less than 90% by weight) | 4 (herbicidal effect of not less than 70% by weight and less than 90% by weight) | 4 (herbicidal effect of not less than 70% by weight and less than 90% by weight) | 5 (herbicidal effect of not less than 90% by weight) | 4 (herbicidal effect of not less than 70% by weight and less than 90% by weight) | 5 (herbicidal effect of not less than 90% by weight) | 4 (herbicidal effect of not less than 70% by weight and less than 90% by weight) |
| COC=C(Cn1nc(-c2ccc(Cl)cc2)c(C)c1C)C(=O)OC [Compound 35] | 4 (herbicidal effect of not less than 70% by weight and less than 90% by weight) | 4 (herbicidal effect of not less than 70% by weight and less than 90% by weight) | 4 (herbicidal effect of not less than 70% by weight and less than 90% by weight) | 4 (herbicidal effect of not less than 70% by weight and less than 90% by weight) | 0 (herbicidal effect of not less than 0% by weight and less than 10% by weight) | 3 (herbicidal effect of not less than 50% by weight and less than 70% by weight) | 0 (herbicidal effect of not less than 0% by weight and less than 10% by weight) | 0 (herbicidal effect of not less than 0% by weight and less than 10% by weight) | 0 (herbicidal effect of not less than 0% by weight and less than 10% by weight) | 0 (herbicidal effect of not less than 0% by weight and less than 10% by weight) | 4 (herbicidal effect of not less than 70% by weight and less than 90% by weight) | 4 (herbicidal effect of not less than 70% by weight and less than 90% by weight) | 4 (herbicidal effect of not less than 70% by weight and less than 90% by weight) | 4 (herbicidal effect of not less than 70% by weight and less than 90% by weight) | 3 (herbicidal effect of not less than 50% by weight and less than 70% by weight) | 4 (herbicidal effect of not less than 70% by weight and less than 90% by weight) | 4 (herbicidal effect of not less than 70% by weight and less than 90% by weight) |
| COC=C(Cn1nc(-c2cccc(Cl)c2Cl)c(Cl)c1C)C(=O)OC [Compound 20] | 5 (herbicidal effect of not less than 90% by weight) | 4 (herbicidal effect of not less than 70% by weight and less than 90% by weight) | 4 (herbicidal effect of not less than 70% by weight and less than 90% by weight) | 4 (herbicidal effect of not less than 70% by weight and less than 90% by weight) | 0 (herbicidal effect of not less than 0% by weight and less than 10% by weight) | 4 (herbicidal effect of not less than 70% by weight and less than 90% by weight) | 0 (herbicidal effect of not less than 0% by weight and less than 10% by weight) | 0 (herbicidal effect of not less than 0% by weight and less than 10% by weight) | 0 (herbicidal effect of not less than 0% by weight and less than 10% by weight) | 0 (herbicidal effect of not less than 0% by weight and less than 10% by weight) | 5 (herbicidal effect of not less than 90% by weight) | 4 (herbicidal effect of not less than 70% by weight and less than 90% by weight) | 4 (herbicidal effect of not less than 70% by weight and less than 90% by weight) | 5 (herbicidal effect of not less than 90% by weight) | 4 (herbicidal effect of not less than 70% by weight and less than 90% by weight) | 5 (herbicidal effect of not less than 90% by weight) | 5 (herbicidal effect of not less than 90% by weight) |
| CO/C=C(/C(=O)OC)n1nc(-c2cccc(Cl)c2)c(Cl)c1C [Control, reference compound] | 0 (herbicidal effect of not less than 0% by weight and less than 10% by weight) | 0 (herbicidal effect of not less than 0% by weight and less than 10% by weight) | 0 (herbicidal effect of not less than 0% by weight and less than 10% by weight) | 0 (herbicidal effect of not less than 0% by weight and less than 10% by weight) | 0 (herbicidal effect of not less than 0% by weight and less than 10% by weight) | 0 (herbicidal effect of not less than 0% by weight and less than 10% by weight) | 0 (herbicidal effect of not less than 0% by weight and less than 10% by weight) | 0 (herbicidal effect of not less than 0% by weight and less than 10% by weight) | 0 (herbicidal effect of not less than 0% by weight and less than 10% by weight) | 0 (herbicidal effect of not less than 0% by weight and less than 10% by weight) | 0 (herbicidal effect of not less than 0% by weight and less than 10% by weight) | 0 (herbicidal effect of not less than 0% by weight and less than 10% by weight) | 0 (herbicidal effect of not less than 0% by weight and less than 10% by weight) | 0 (herbicidal effect of not less than 0% by weight and less than 10% by weight) | 0 (herbicidal effect of not less than 0% by weight and less than 10% by weight) | 0 (herbicidal effect of not less than 0% by weight and less than 10% by weight) | 0 (herbicidal effect of not less than 0% by weight and less than 10% by weight) |
